# From US7968558B2, “Amidine derivatives of 2-heteroaryl-quinazolines and quinolines; potent analgesics and anti-inflammatory agents” (Rottapharm S.p.A., priority 2006, dated 2011)
# Counter-ions that a name gives are not always drawn. Like-named read-outs stand apart in the source and are kept apart here.
# Tests used:
# [1] = test system: mechanical hyperalgesia associated with STZ-induced diabetes; assay: STZ-induced diabetes mechanical hyperalgesia (neuropathic pain); type: in vivo, rat
# Protocol: Streptozotocin (STZ)-induced diabetes in the rat has been increasingly used as a model of painful diabetic neuropathy to assess the efficacies of potential analgesic agents (C. Courteix, Pain 1993, 53, 81-8). The compounds of the invention were tested for efficacy in reducing mechanical hyperalgesia associated with STZ-induced diabetes in the rat, according to the experimental model as described by the literature. Diabetes was produced with the injection of a single dose (75 mg/Kg i.p.) of STZ. In the following four weeks after the induction of diabetes the clinical symptoms (weight, body and skin temperature, motility and hyperglycemia) progressively developed by the animals, are strictly monitored. After four weeks, the scores obtained in diabetic rats to various pain stimuli (in particular mechanical stimuli) were grater than those in normal rats, indicating hyperalgesia. The hyperalgesia induced by diabetes was evaluated using the Randall-Selitto method as above described, and quantitated using the analgesimeter. Also in this case, the difference in the mechanical pain threshold between the basal value (generally 230-250 g) and the one tolerated by the animals treated with the drug, is defined as mechanical hyperalgesia. The compounds of the invention were administered i.p. (solution, Tween 80, 10% in saline) at different doses, and mechanical hyperalgesia was measured at the reported time, as maximum percent effect (MPE) which represents the difference (%) in pain threshold between the animals treated with the drug and the controls that received only the vehicle, compared with the weight borne by naïf non-diabetic controls. A 100% protection means that the diabetic animals treated with the compound can tolerate the same stimulus (weight) as the naïf non-diabetic animals. MPE higher than 100% means that the diabetic animal treated with the compound can tolerate stimuli (weight) higher than the control non-diabetic animals (hypoalgesia).
# [2] = test system: Zymosan-induced mechanical hyperalgesia; assay: Zymosan-induced mechanical hyperalgesia (Randall-Selitto); type: in vivo, rat; settings: for ED50: Rattus norvegicus, read-out: Analgesia ED50; for Analgesia ED100: calculated from linear dose-response
# Protocol: (§1) The interplantar injection of Zymosan-induced mechanical hyperalgesia was used as a model of inflammatory pain (Meller, Neuropharmacology, 1994, 33, 1471-1478). In this model, typically a male Sprague-Dawley or Wistar rat (200-250 g) receives an interplantar injection of 3 mg/100 μl zymosan into one hind paw. A marked inflammation occurs in this hind paw. Drugs are administered orally for evaluation of efficacy, 30 min. before the inflammatory insult. The hyperalgesia induced by zymosan administration was evaluated using the Randall-Selitto method (Arch. Int. Pharmacodyn., 1957, 111, 409). The quantitation of the analgesic effect is achieved by an analgesimeter, which consist in applying to the inflamed paw an increasing weight (from 130-140 g up to 500 g). The difference in the mechanical pain threshold between the basal value (generally 230-250 g) and the one tolerated by the animals treated with the drug, determined 4 hours after the inflammatory challenge, is defined as mechanical hyperalgesia.
# (§2) Mechanical hyperalgesia is expressed for the compounds of the invention as ED50, which is the dose of the administered compound able to increase the pain threshold by 50% in comparison with the group of control animals. The corresponding ED100, representing the dose able of reducing of 100% the pain threshold, can be calculated for those cases where there is a linear dose-response relationship. In vivo anti-inflammatory effect exerted by the compound of the invention can be assessed in the same Zymosan induced inflammation test described above, by measuring the volume of the oedema induced by the inflammatory agent. The oedema was evaluated as the increase in the volume of the Zymosan injected paw within a time of 0-2 hrs. The measurements of the variation of the oedema volume of the paw were recorded using hydroplethysmometer, which consists of two plastic cuvettes containing a surfactant liquid, the larger one being used for immersion of the paw, connected to the smaller one which contains a trans-ducer capable of recording small displacements of the volume used for the measure. The paw is immersed in the cuvettes up to the tibiotarsal joint. The volume of the liquid displaced is proportional to the extent of the inflammation. The efficacy of the compounds of the invention in preventing oedema formation is expressed as ED30, and is measured 2 hours after the inflammatory challenge, and represents the dose able of reducing of 30%, the Zymosan induced paw volume increase in comparison to control animals (animals treated with Zymosan but treated with only distilled water instead of the testing compound). The corresponding ED50, representing the dose able of reducing of 50% the zymosan induced paw volume increase, can be calculated for those cases where there is a linear dose-response relationship.
# (§3) In both the experiments, for each test compound, at least three doses were used, with 10 animals per group. Compounds of the invention were tested at 10, 20 and 40 mg/Kg.
# [3] = test system: Zymosan induced paw volume increase; assay: Zymosan-induced paw oedema; type: in vivo, rat; settings: for ED50: Rattus norvegicus, read-out: Oedema Reduction ED50; for Oedema Reduction ED30: 2 hours after challenge
# Protocol: as §1, §2, §3
# [4] = test system: acetic acid-induced abdominal writhes; assay: Acetic acid-induced writhing test; type: in vivo, mice
# Protocol: With the aim of assessing whether the compounds of the invention are able to inhibit responses to peritoneal irritation-induced visceral pain, the acetic acid-induced writhing assay was used in mice to determine the degree of anti-nociception.
# The writhing test is a model of inflammatory pain that has long been used as a screening tool for evaluation of analgesic and anti-inflammatory agents (HDJ Collier, B. J. Pharmacol Chemother., 1968, 32, 295-310). The test was performed inducing nociception by an i.p. injection of acetic acid 1%, 0.1 mL/10 g of body weight. Mice were pre-treated (subcutaneously, s.c., three different doses: 3, 10, 30 mg/Kg) with the tested compounds 30 min. before acetic acid injection, while control animals received a similar volume of saline solution. A group of mice was treated with Paracetamol (200 mg/Kg, s.c.) as reference drug. The number of abdominal writhes (full extension of both hind paws) was cumulatively counted every 5 minutes over a period of 20 min. immediately after the acetic acid injection. The anti-nociceptive activity was expressed as inhibition of abdominal writhes as maximum percent effect (MPE), which represents the difference (%) in pain threshold between the animals treated with the drug and the ones that received only the vehicle.
# CFA-induced hyperalgesia = assay: CFA model of chronic inflammatory pain; type: in vivo, rat
# [5] = test system: formalin-induced paw licking; assay: Formalin (licking) test; type: in vivo, mice; settings: for ED50: Mus musculus, ip
# Protocol: The formalin test is increasingly used as a model of injury-produced pain (FV. Abbott, Pain, 1995, 60, 91-102). The procedure used for the evaluation of the compounds of the invention was similar to that reported by literature (S. Hunskaar, Pain, 1987, 30, 103-104), and consisted of the injection of 20 μl of 1% solution of formalin dissolved in distilled water, in the plantar surface of the right hind paw of the mice. Immediately, the animals were placed individually in an observation chamber. The amount of time that the animal spent licking the injected paw, considered indicative of pain, was recorded during 30 min. following formalin injection. The initial nociceptive scores normally peaked 5 min after formalin injection (early phase) and 15-30 min. after formalin injection (late phase), representing both the neurogenic and inflammatory pain responses respectively.
# Animals were treated i.p. with an aqueous solution of the tested compound (doses: 3, 10, 30 mg/Kg), 1 hour before the formalin injection. Control animals received only the vehicle.
# In Table 8, the analgesic effect elicited in this test by a representative compound of Formula (I), is expressed as ED50 both for the early and late phase, and compared with the performance of the standard reference, paracetamol.
# [6] = oral, 30 min before zymosan, 4 hours after challenge
# [7] = oral, calculated from linear dose-response
structure (smiles),measurement,setting,value
"CN(C)CCC=C1c2ccccc2CCc2ccccc21 [Amitriptyline, reference compound]",MPE 0.5 hrs.,[1]; 1 mg/Kg i.p.,72%
same,MPE 1.5 hrs.,[1]; 1 mg/Kg i.p.,89%
same,MPE 0.5 hrs.,[1]; 3 mg/Kg i.p.,44%
same,MPE 1.5 hrs.,[1]; 3 mg/Kg i.p.,40%
same,MPE 3 hrs.,[1]; 3 mg/Kg i.p.,5%
same,MPE 0.5 hrs.,[1]; 10 mg/Kg i.p.,68%
same,MPE 1.5 hrs.,[1]; 10 mg/Kg i.p.,77%
same,MPE 0.5 hrs.,[1]; 30 mg/Kg i.p.,65%
same,MPE 1.5 hrs.,[1]; 30 mg/Kg i.p.,69%
same,MPE 3 hrs.,[1]; 30 mg/Kg i.p.,23%
"Cc1ccc(-c2cc(C(F)(F)F)nn2-c2ccc(S(N)(=O)=O)cc2)cc1 [Celecoxib, reference compound]",ED50,[2]; [6],9 mg/kg
same,Analgesia ED100,[2]; oral,1172 mg/kg
same,ED50,[3]; [7],644 mg/kg
same,Oedema Reduction ED30,[3]; oral,13.8 mg/kg
"CC(=N)Nc1ccc2nc(-c3ccc4c(c3)CCO4)ncc2c1 [Example 4, N-[2-(2,3-dihydro-benzofuran-5-yl)quinazolin-6-yl]acetamidine dihydrochloride hemihydrate]",ED50,[2],5.8 mg/kg
same,Analgesia ED100,[2]; oral,17 mg/kg
same,ED50,[3]; po,170 mg/kg
same,Oedema Reduction ED30,[3]; oral,25 mg/kg
same,MPE (%),"[4]; 3 mg/Kg s.c., 30 min. before acetic acid",18%
same,MPE (%),"[4]; 10 mg/Kg s.c., 30 min. before acetic acid",41%
same,MPE (%),"[4]; 30 mg/Kg s.c., 30 min. before acetic acid",36%
same,ED50,"[4]; Mus musculus, sc",59.6 mg/kg
same,MPE 1.5 hrs.,CFA-induced hyperalgesia; 3 mg/Kg i.p.,44%
same,MPE 0.5 hrs.,CFA-induced hyperalgesia; 10 mg/Kg i.p.,47%
same,MPE 1.5 hrs.,CFA-induced hyperalgesia; 10 mg/Kg i.p.,27%
same,MPE 3 hrs.,CFA-induced hyperalgesia; 10 mg/Kg i.p.,25%
same,MPE 6 hrs.,CFA-induced hyperalgesia; 10 mg/Kg i.p.,66%
same,MPE 24 hrs.,CFA-induced hyperalgesia; 10 mg/Kg i.p.,57%
same,MPE 0.5 hrs.,CFA-induced hyperalgesia; 30 mg/Kg i.p.,243%
same,MPE 1.5 hrs.,CFA-induced hyperalgesia; 30 mg/Kg i.p.,270%
same,MPE 3 hrs.,CFA-induced hyperalgesia; 30 mg/Kg i.p.,170%
same,MPE 6 hrs.,CFA-induced hyperalgesia; 30 mg/Kg i.p.,103%
same,MPE 24 hrs.,CFA-induced hyperalgesia; 30 mg/Kg i.p.,76%
same,MPE 0.5 hrs.,[1]; 3 mg/Kg i.p.,56%
same,MPE 1.5 hrs.,[1]; 3 mg/Kg i.p.,15%
same,MPE 0.5 hrs.,[1]; 10 mg/Kg i.p.,78%
same,MPE 1.5 hrs.,[1]; 10 mg/Kg i.p.,24%
same,MPE 0.5 hrs.,[1]; 30 mg/Kg i.p.,163%
same,MPE 1.5 hrs.,[1]; 30 mg/Kg i.p.,74%
COc1ccc2c(c1)c(CC(=O)O)c(C)n2C(=O)c1ccc(Cl)cc1 [Indomethacine],Analgesic effect ED50 (mg/Kg) Late phase,"[5]; i.p., 1 hour before formalin, late phase",10 mg/kg
CN1CC[C@]23c4c5ccc(O)c4O[C@H]2[C@@H](O)C=C[C@H]3[C@H]1C5 [Morphine],ED50,[5]; read-out: Analgesic effect ED50 (mg/Kg) Early phase,4 mg/kg
same,ED50,[5]; read-out: Analgesic effect ED50 (mg/Kg) Late phase,4 mg/kg
"CS(=O)(=O)Nc1ccc([N+](=O)[O-])cc1Oc1ccccc1 [Nimesulide, reference compound]",ED50,[2]; [6],7.4 mg/kg
same,Analgesia ED100,[2]; oral,161 mg/kg
same,ED50,[3]; [7],33.4 mg/kg
same,Oedema Reduction ED30,[3]; oral,0.5 mg/kg
CC(=O)Nc1ccc(O)cc1 [Paracetamol],MPE (%),[4]; 200 mg/Kg s.c.,61%
same,ED50,"[5]; 1 hour before formalin, early phase, read-out: Analgesic effect ED50 (mg/Kg) Early phase",230 mg/kg
same,ED50,"[5]; 1 hour before formalin, late phase, read-out: Analgesic effect ED50 (mg/Kg) Late phase",107 mg/kg
"CN1C(C(=O)Nc2ccccn2)=C(O)c2ccccc2S1(=O)=O [Piroxicam, reference compound]",MPE 0.5 hrs.,CFA-induced hyperalgesia; 30 mg/Kg i.p.,102%
same,MPE 1.5 hrs.,CFA-induced hyperalgesia; 30 mg/Kg i.p.,111%
same,MPE 3 hrs.,CFA-induced hyperalgesia; 30 mg/Kg i.p.,54%
same,MPE 6 hrs.,CFA-induced hyperalgesia; 30 mg/Kg i.p.,24%
same,MPE 24 hrs.,CFA-induced hyperalgesia; 30 mg/Kg i.p.,38%
"COc1cccc(C2(O)CCCCC2CN(C)C)c1 (centres unmarked) [Tramadol, reference compound]",ED50,[2],25.7 mg/kg
same,Analgesia ED100,[2]; oral,405 mg/kg
same,MPE 0.5 hrs.,[1]; 3 mg/Kg i.p.,26%
same,MPE 1.5 hrs.,[1]; 3 mg/Kg i.p.,53%
same,MPE 3 hrs.,[1]; 3 mg/Kg i.p.,7%
same,MPE 0.5 hrs.,[1]; 10 mg/Kg i.p.,58%
same,MPE 1.5 hrs.,[1]; 10 mg/Kg i.p.,48%
same,MPE 3 hrs.,[1]; 10 mg/Kg i.p.,27%
same,MPE 0.5 hrs.,[1]; 30 mg/Kg i.p.,54%
same,MPE 1.5 hrs.,[1]; 30 mg/Kg i.p.,64%
same,MPE 3 hrs.,[1]; 30 mg/Kg i.p.,23%
same,MPE 0.5 hrs.,[1]; 50 mg/Kg i.p.,81%
same,MPE 1.5 hrs.,[1]; 50 mg/Kg i.p.,60%
same,MPE 3 hrs.,[1]; 50 mg/Kg i.p.,43%
